Here are results for four molecules from publication PMC7582905, “Effect of Disulfide Cyclization of Ultrashort Cationic Lipopeptides on Antimicrobial Activity and Cytotoxicity” (International Journal of Molecular Sciences, 2020).

Converted amounts (≈) assume the structure as drawn. Where two headings read alike, the source gives them in different places. Where a SMILES comes first, the peptide text is derived from it. Bridges are numbered along the chain shown (N, C = ends). The star is where a group is joined. Palmitoyl = CCCCCCCCCCCCCCCC(=O)*

Holding throughout (format): cell-based
Data set [1] deals with Candida tropicalis PCM 2709-FY. The settings on record: 24 h. An outline of the steps:
(§1)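 Broth microdilution per CLSI: E. coli at 5 × 10^5 CFU/mL in Mueller–Hinton broth, yeasts at 2 × 10^3 CFU/mL in RPMI-1640 with 2% D-glucose, exposed to lipopeptides at 0.5–256 μg/mL. Incubation at 37 °C, 18 h for bacteria and 24 h for yeasts. MIC read visually as lowest concentration inhibiting noticeable growth; triplicate.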

For data set [2], the system named is Staphylococcus epidermidis ATCC 14990. The method, boiled down:
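MIC = lowest lipopeptide concentration (range 0.5–256 μg/mL) with no noticeable growth, scored by eye. Bacteria tested in MHB at 5 × 10^5 CFU/mL for 18 h; Candida in RPMI-1640 + 2% D-glucose at 2 × 10^3 CFU/mL for 24 h; both at 37 °C.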

Data set [3] has as its system Candida albicans ATCC 10231. The method, boiled down:
as §1

Data set [4] concerns Staphylococcus aureus ATCC 25923. On the procedure: (§2) The Staphylococcus aureus ATCC 25923, Staphylococcus epidermidis ATCC 14990, Escherichia coli ATCC 25922, Pseudomonas aeruginosa ATCC 9027, Candida albicans ATCC 10231, Candida glabrata ATCC 15126, Candida lipolytica PCM 2680-FY, and Candida tropicalis PCM 2709-FY strains were acquired from the Polish Collection of Microorganisms (PCM, Polish Academy of Sciences, Wrocław, Poland) and from the American Type Culture Collection (ATCC). All the strains were stored at −80 °C in Roti-Store cryo vials and before the tests were transferred into fresh Mueller–Hinton broth (MHB, Biocorp, Warsaw, Poland) for bacteria or RPMI-1640 (Sigma-Aldrich, Steinheim, Germany) for fungi and incubated for 24 h at 37 °C. Then, the cultures were seeded on Mueller–Hinton agar (BioMaxima, Lublin, Poland) or Sabouraud dextrose agar (SDA, BioMaxima, Lublin, Poland) plates, respectively, and incubated as just mentioned. These agar cultures were used for further microbiological assays. Cell densities for all assays were adjusted spectrophotometrically (Multiskan GO Microplate Spectrophotometer, Thermo Fisher Scientific, Vantaa, Finland) at 600 and 660 nm for bacteria and fungi, respectively.
(§3) The assay was performed to evaluate the effect of the lipopeptides in preventing biofilm formation. The preparation of inoculums was followed by a ca. 500-fold dilution of the 24 h cultures of microorganisms. Briefly, 50 μL of the compounds in the concentration range, diluted in appropriate medium, were prepared on 96-well polystyrene flat-bottom plates. Subsequently, the 50 μL of the bacterial/fungal inoculums were added to reach the same microbial density as that in the MBEC assay. After 24 h of incubation at 37 °C, the wells were rinsed three times with PBS and the fresh media with resazurin (4 g/L) were added. The MBICs were read after 1 h. All experiments were conducted in triplicate.

Data set [5] has as its system Candida tropicalis PCM 2709-FY. As to the method:
as §2, §3

Data set [6] relates to Pseudomonas aeruginosa ATCC 9027. As to the method: as §2, §3
The subject of data set [7] is Staphylococcus epidermidis ATCC 14990. On the procedure: as §2, §3
The source holds these as a separate data set.

In data set [8] the test system is Escherichia coli ATCC 25922. As to the method:
as §2, §3

In data set [9] the test system is Candida lipolytica PCM 2680-FY. As to the method:
as §2, §3

The test system of data set [10] is Candida albicans ATCC 10231. On the procedure: as §2, §3
This is another data set of the same source.

For data set [11], the system named is Candida glabrata ATCC 15126. As to the method: as §2, §3
For data set [12], the system named is human red blood cells (hRBCs). The data set can be described thus: Hemolysis assay. The settings on record: peptide concentration causing 50% hemolysis; 4% (v/v) hRBCs in PBS, 1 h, 37 °C, absorbance 540 nm, triplicate. On the procedure: The hemolysis assay was performed by using the method reported previously. Fresh human red blood cells (hRBCs) with anticoagulant (EDTA) were rinsed three times with a PBS by centrifugation at 800× g for 10 min and diluted with PBS. The lipopeptides were serially diluted on a 96-well microtiter polystyrene plate and hRBCs were added up to a final volume of 100 μL. The peptide concentration ranged between 0.5 and 256 μg/mL and the final hRBCs concentration was 4% (v/v). Controls for zero hemolysis (blank) and 100% hemolysis consisted of hRBCs suspended in PBS and 1% of Triton-X 100, respectively. The plate was incubated for 1 h at 37 °C and then centrifuged (800× g, 10 min, 4 °C). Subsequently, the supernatant was […] to new microtiter plates and the absorbance at 540 nm was measured. All experiments were conducted in triplicate. HC50 was calculated using an ic50.tk tool. Protocol of the study received approval from the local Bioethics Committee at the Medical University of Gdańsk (NKBBN/262/2019, approval date: 10 June 2019).

Where [13] appears, read: prevention of biofilm formation on polystyrene plates, 24 h at 37 °C, resazurin, triplicate.

Take `CCCCCCCCCCCCCCCC(=O)N[C@H]1CSSC[C@@H](C(N)=O)NC(=O)[C@H](CCCCN)NC(=O)[C@H](CCCCN)NC(=O)[C@H](CCCCN)NC(=O)[C@H](CCCCN)NC1=O` [C2, C16-CKKKKC-NH2] (Palmitoyl-CKKKKC-NH2; disulfide 1-6): in [1] (broth microdilution (CLSI), RPMI-1640 with 2% D-glucose, 2 × 10^3 CFU/mL, 37 °C, visual, triplicate), the “MIC C. tropicalis” value is 2 µg/mL (≈ 2.06 µM). In [2] (broth microdilution (CLSI), MHB, 5 × 10^5 CFU/mL, 37 °C, 18 h, visual, triplicate), the “MIC S. epidermidis” value came to 8 µg/mL (≈ 8.23 µM). Besides, the “MIC C. albicans” value in data set [3] (broth microdilution (CLSI), RPMI-1640 with 2% D-glucose, 2 × 10^3 CFU/mL, 37 °C, 24 h, visual, triplicate) came out at 4 µg/mL (≈ 4.11 µM). In addition, the “MBIC S. aureus” value in data set [4] (setting [13]) was determined as 16 µg/mL. The “MBIC C. tropicalis” value in [5] (setting [13]) is 8 µg/mL. Besides, in [6] (setting [13]), the “MBIC P. aeruginosa” value was found to be 64 µg/mL. Moreover, in [7] (setting [13]), the “MBIC S. epidermidis” value was found to be 4 µg/mL. Moreover, the “MBIC E. coli” value in data set [8] (setting [13]) is 32 µg/mL. In addition, the “MBIC C. lipolytica” value in data set [9] (setting [13]) amounted to 8 µg/mL. The “MBIC C. albicans” value in [10] (setting [13]) turned out to be 16 µg/mL. In addition, the “MBIC C. glabrata” value in data set [11] (setting [13]) is 32 µg/mL. The molecule further showed an HC50 in data set [12] of 30.6 ± 1.1 µg/mL.
As to `CCCCCCCCCCCCCCCC(=O)N[C@H]1CSSC[C@@H](C(N)=O)NC(=O)[C@H](CCCCN)NC(=O)[C@H](CCCCN)NC(=O)[C@H](CCCNC(=N)N)NC(=O)[C@H](CCCNC(=N)N)NC1=O` [C7, C16-CRRKKC-NH2] (Palmitoyl-CRRKKC-NH2; disulfide 1-6), the “MIC C. tropicalis” value in data set [1] (PCM 2709-FY) turned out to be 4 µg/mL (≈ 3.89 µM). Moreover, the “MIC S. epidermidis” value in data set [2] (ATCC 14990, 18 h) came out at 4 µg/mL (≈ 3.89 µM). Further, the “MIC C. albicans” value in data set [3] (ATCC 10231, 24 h) is 16 µg/mL (≈ 15.6 µM). The “MBIC S. aureus” value in data set [4] (ATCC 25923, 24 h) came to 16 µg/mL. Also, the “MBIC C. tropicalis” value in data set [5] (PCM 2709-FY, 24 h) was 8 µg/mL. Further, in data set [6] (ATCC 9027, 24 h), the “MBIC P. aeruginosa” value came out at 128 µg/mL. Besides, the “MBIC S. epidermidis” value in data set [7] (ATCC 14990, 24 h) was 16 µg/mL. Further, the “MBIC E. coli” value in data set [8] (ATCC 25922, 24 h) is 128 µg/mL. Further, the “MBIC C. lipolytica” value in data set [9] (24 h) amounted to 8 µg/mL. Moreover, the “MBIC C. albicans” value in data set [10] (ATCC 10231, 24 h) was found to be 16 µg/mL. Also, the “MBIC C. glabrata” value in data set [11] (ATCC 15126, 24 h) was 16 µg/mL. In data set [12], this molecule returned an HC50 of 92.0 ± 9.6 µg/mL.
On to `CCCCCCCCCCCCCCCC(=O)N[C@@H](CCCCN)C(=O)N[C@@H](CCCNC(=N)N)C(=O)N[C@@H](CCCCN)C(=O)N[C@@H](CCCCN)C(N)=O` [L4, C16-KRKK-NH2] (Palmitoyl-KRKK-NH2), for which the “MIC C. tropicalis” value in [1] (PCM 2709-FY) was determined as 2 µg/mL (≈ 2.51 µM). In addition, the “MIC S. epidermidis” value in [2] (ATCC 14990, 18 h) worked out at 8 µg/mL (≈ 10 µM). Besides, in data set [3] (ATCC 10231, 24 h), the “MIC C. albicans” value turned out to be 16 µg/mL (≈ 20.1 µM). In addition, the “MBIC S. aureus” value in data set [4] (ATCC 25923, 24 h) amounted to 16 µg/mL. For the same molecule, the “MBIC C. tropicalis” value in data set [5] (PCM 2709-FY, 24 h) was found to be 8 µg/mL. Besides, the “MBIC P. aeruginosa” value in data set [6] (ATCC 9027, 24 h) is 32 µg/mL. Moreover, the “MBIC S. epidermidis” value in data set [7] (ATCC 14990, 24 h) turned out to be 8 µg/mL. For the same molecule, the “MBIC E. coli” value in data set [8] (ATCC 25922, 24 h) stood at 32 µg/mL. Further, the “MBIC C. lipolytica” value in [9] (24 h) was 16 µg/mL. Besides, the “MBIC C. albicans” value in [10] (ATCC 10231, 24 h) was 32 µg/mL. For the same molecule, the “MBIC C. glabrata” value in [11] (ATCC 15126, 24 h) was determined as 64 µg/mL. In addition, in data set [12], the HC50 turned out to be 79.8 ± 9.0 µg/mL.
Regarding `CCCCCCCCCCCCCCCC(=O)N[C@@H](CCCCN)C(=O)N[C@@H](CCCCN)C(=O)N[C@@H](CCCCN)C(=O)N[C@@H](CCCNC(=N)N)C(N)=O` [L6, C16-KKKR-NH2] (Palmitoyl-KKKR-NH2), the “MIC C. tropicalis” value in data set [1] (PCM 2709-FY) amounted to 8 µg/mL (≈ 10 µM). The “MIC S. epidermidis” value in [2] (ATCC 14990, 18 h) stood at 4 µg/mL (≈ 5.02 µM). For the same molecule, the “MIC C. albicans” value in [3] (ATCC 10231, 24 h) turned out to be 32 µg/mL (≈ 40.2 µM). Further, in data set [4] (ATCC 25923, 24 h), the “MBIC S. aureus” value is 32 µg/mL. In addition, in data set [5] (PCM 2709-FY, 24 h), the “MBIC C. tropicalis” value amounted to 16 µg/mL. Besides, the “MBIC P. aeruginosa” value in data set [6] (ATCC 9027, 24 h) was 64 µg/mL. Also, the “MBIC S. epidermidis” value in data set [7] (ATCC 14990, 24 h) worked out at 8 µg/mL. For the same molecule, the “MBIC E. coli” value in data set [8] (ATCC 25922, 24 h) amounted to 32 µg/mL. Further, in [9] (24 h), the “MBIC C. lipolytica” value is 32 µg/mL. The “MBIC C. albicans” value in data set [10] (ATCC 10231, 24 h) was found to be 64 µg/mL. Further, the “MBIC C. glabrata” value in data set [11] (ATCC 15126, 24 h) came to 64 µg/mL. In addition, in data set [12], the HC50 was found to be 89.7 ± 2.4 µg/mL.
